Experimental data from article PMC8230625 (International Journal of Molecular Sciences, 2021).
“Also recorded” adds a separate entry of the source.

Assays:
[1] = system: androgen receptors; design: method as in PMID 28910742; settings: yeast reporters bioassay; cited from earlier work
[2] = target: T1, hERα (Saccharomyces cerevisiae BLYES strain) (Homo sapiens, UniProt P03372); assay: cell-based; type: cell-based; settings: for CI Value (combination index) / Combined Estrogenic Effect / Combined Estrogenic Effect (grade symbol): + 6.28 × 10^−2 µM ZEN; for Combined estrogenic effect in Figure 5B: + 62.8 ×10^-3 μM ZEN
T1 construct: expressed in transfected cells; host or cells: Saccharomyces cerevisiae BLYES strain (hERα gene integrated in the chromosome)
Description: The Saccharomyces cerevisiae BLYES strain was applied to examine the estrogenic activity of the compounds tested. This bioluminescent yeast bioreporter harbors the hERα gene on its chromosome, and it has two plasmids with genes responsible for bioluminescence. The pUTK404 plasmid contains luxC, -D, and -E genes from Photorhabdus luminescens and flavin oxidoreductase gene (frp) from Vibrio harveyi. The pUTK407 plasmid contains tandem estrogen responsive elements (EREs) that initiate the transcription of luxA and luxB genes after binding the dimer formed by estrogen receptor—ligand complexes.
S. cerevisiae BLYES strain was grown in 30 mL of yeast growth medium (YMM leu-, ura-) for 18–20 h at 30 °C.
Stock solutions of the compounds tested were prepared in methanol and stored at −20 °C. Estrogen assays were carried out on 96-well (PS, F-bottom) microplates (Greiner Bio-One Hungary Ltd., Mosonmagyaróvár, Hungary). In single compound tests, stock solutions of the compounds were serially diluted with methanol; whereas, in co-exposure experiments, a 20-µL mixture of the solutions was placed into the wells of the microplates. After the evaporation of methanol, yeast culture (200 µL; OD600 of 1.000 ± 0.050) were pipetted into each well. E2 was applied as a positive control, while wells containing only yeast cells and yeast cells with methanol served as negative and solvent controls, respectively. Bioluminescence (cps, counts per second) was measured after 5-h incubation (30 °C) with a VictorX Multilabel Plate Reader (Perkin Elmer Inc., Waltham, MA, USA).
(§1) Combined effects were evaluated based on combination indices (CI) determined using the CompuSyn software (ComboSyn Inc., Paramus, NJ, USA) by the median-effect equation of the mass-action law:(1) logfa/fu=m×log(D)−m×log(Dm), where fa and fu are the affected and unaffected fractions of the system, respectively; D represents the dose, Dm denotes the dose necessary for the production of median effect, while m is the sigmoidicity coefficient (m > 1 sigmoidal, m = 1 hyperbolic, m < 1 flat sigmoidal).
(§2) The combined effects of mycotoxins were determined by the CI values calculated based on the following equation [68]:(2) CI=(D)1/(Dx)1+(D)2/(Dx)2, where (Dx)1 and (Dx)2 are the individual doses necessary for the production of x% effect, while (D)1 and (D)2 are the doses of the two compounds that combined evoke the same effect as (Dx)1 alone or (Dx)2 alone, i.e., the targeted x% effect.
Zero percent was defined in each measurement as the mean of the methanol control values, and 100% was defined as the mean of all plateau values of single compounds’ concentration—response curves.

[3] = system: estrogen receptors; design: method as in PMID 28910742; settings: yeast reporters bioassay; cited from earlier work
[4] = system: Ishikawa cells; design: method as in PMID 16194592; settings: alkaline phosphatase assay; cited from earlier work
[5] = in vitro; settings: human
Method: (§3) The HeLa cervical cancer adherent cell line (ATCC: CCL-2) was applied for the evaluation of individual and combined effects of mycotoxins on cell viability. The cells were cultured in DMEM (high glucose, 4500 mg/L) with 10% FBS, penicillin (100 U/mL), and streptomycin (100 μg/mL) in sterile plastic cell culture flasks (75 cm^2; 5% CO2, 37 °C). The cells were trypsinized and plated onto 96-well sterile plastic plates. Stock solutions (each 5000 μM) of ZEN, ZELs, ZAN, and ZALs used in cell experiments were prepared in 96 v/v% ethanol (spectroscopic grade; VWR, Debrecen, Hungary). Stock solutions of AOH (5000 μM or 40 mM) were prepared in spectroscopic grade dimethyl sulfoxide (DMSO; Fluka, Morris Plains, NJ, USA). Mycotoxin stock solutions were stored at −20 °C.
(§4) HeLa cells were treated with ZEN, α/β-ZEL, ZAN, α/β-ZAL, and AOH (0–250 μM) for 24 h. […] The cell viability was evaluated based on the ATP levels/well employing a previously described method without modifications.
as §1, §2

[6] = system: HeLa cells; assay: in vitro; settings: HeLa; for CI Value (combination index): CompuSyn; for Concentration at (and above) which statistically significant (p < 0.01) decrease in cell viability was noticed: 24 h incubation, single compound; for IC50: Homo sapiens, read-out: Dm (IC50), viability of HeLa cells (ATP/well)
Method: as §3, §4, §1, §2

[7] = system: hERβ; design: method as in PMID 16194592; settings: cited from earlier work
[8] = system: hERα; design: method as in PMID 16194592; settings: cited from earlier work
[9] = 24 h, 10 µM (lower toxic concentration) of the compound + 20 µM ZEN
[10] = 24 h, 10 µM of the compound + 20 µM ZEN
[11] = 24 h, 30 µM (higher toxic concentration) of the compound + 20 µM ZEN
[12] = 24 h, 30 µM of the compound + 20 µM ZEN
[13] = BLYES, higher estrogenic concentration of the compound (as E22)
[14] = BLYES, lower estrogenic concentration of the compound (as E21)

T1 sequence (P03372 whole entry): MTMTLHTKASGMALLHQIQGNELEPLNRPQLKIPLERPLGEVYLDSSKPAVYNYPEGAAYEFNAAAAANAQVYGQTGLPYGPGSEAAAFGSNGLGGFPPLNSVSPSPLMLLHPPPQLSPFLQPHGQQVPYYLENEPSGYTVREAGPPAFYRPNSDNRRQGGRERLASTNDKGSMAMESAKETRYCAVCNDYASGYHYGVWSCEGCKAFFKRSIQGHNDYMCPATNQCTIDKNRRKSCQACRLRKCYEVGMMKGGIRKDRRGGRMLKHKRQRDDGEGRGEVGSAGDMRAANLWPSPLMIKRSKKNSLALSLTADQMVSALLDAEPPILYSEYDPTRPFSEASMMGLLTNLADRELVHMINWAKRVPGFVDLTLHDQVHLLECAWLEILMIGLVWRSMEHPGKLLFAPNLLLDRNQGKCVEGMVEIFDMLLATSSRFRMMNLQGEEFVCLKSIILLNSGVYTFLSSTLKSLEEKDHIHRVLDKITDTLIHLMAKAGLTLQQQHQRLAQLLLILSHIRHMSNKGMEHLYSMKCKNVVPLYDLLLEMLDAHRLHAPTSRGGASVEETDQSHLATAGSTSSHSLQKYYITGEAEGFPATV

Question: For Cc1cc(O)cc2oc(=O)c3c(O)cc(O)cc3c12 [AOH, alternariol], which “Behaviour at androgen receptors” value [1] is on record?
Answer: The value was “full agonist”.

Question: And the “Effect of subtoxic (non-estrogenic) concentration of the compound on the estrogenic effect of ZEN” value ([2]; BLYES, co-treatment with ZEN (approx. 20% estrogenicity), α-ZEL 1.56 × 10^−3 µM, ZAN 6.24 × 10^−3 µM, AOH up to 48.4 µM, Figure 5A)?
Answer: Its value is “did not cause any relevant change; also recorded: did not increase the estrogenic effect of ZEN”.

Question: And the “Estrogenic effect in BLYES assay” value ([2]; single compound, even at 50 µM)?
Answer: Its value is “did not induce estrogenic effects; also recorded: did not show estrogenicity”.

Question: And the “Behaviour at estrogen receptors” value [3]?
Answer: The value was “weak partial agonist”.

Question: What about the “Fold weaker estrogenic effects vs. E2” value [4] of the same compound?
Answer: Its value is 10,000 fold.

Question: What about the cytotoxicity at 24 h, 10 µM ([5]; Decrease in cellular ATP levels (% of control), individual effect, HeLa, 24 h, single compound at 10 μM) of the same compound?
Answer: The cytotoxicity at 24 h, 10 µM was 13.6%.

Question: What about the cytotoxicity at 24 h, 30 µM ([5]; Decrease in cellular ATP levels (% of control), individual effect, HeLa, 24 h, single compound at 30 μM) of the same compound?
Answer: Its cytotoxicity at 24 h, 30 µM is 32.4%.

Question: What about the “Combined cytotoxic effect in Figure 3B” value [6, 9] of the same compound?
Answer: Its value is “Syn and synergism”.

Question: What about the “Combined Cytotoxic Effect” value [6, 10] of the same compound?
Answer: The value was “Synergism (CI < 0.8: synergism)”.

Question: What about the “Combined Cytotoxic Effect (grade symbol)” value [6, 10] of the same compound?
Answer: Its value is “+ (0.60 < CI < 0.80: +)”.

Question: What about the “CI Value (combination index)” value [6, 10] of the same compound?
Answer: Its value is 0.73.

Question: And the “Combined cytotoxic effect in Figure 3B” value [6, 11]?
Answer: Its value is “Syn and synergism”.

Question: What about the “Combined Cytotoxic Effect” value [6, 12] of the same compound?
Answer: Its value is “Synergism (CI < 0.8: synergism)”.

Question: And the “Combined Cytotoxic Effect (grade symbol)” value [6, 12]?
Answer: The value was “++ (CI < 0.60: ++)”.

Question: And the “CI Value (combination index)” value [6, 12]?
Answer: Its value is 0.50.

Question: What about the “Concentration at (and above) which statistically significant (p < 0.01) decrease in cell viability was noticed” value [6] of the same compound?
Answer: Its value is 10 µM.

Question: What about the IC50 ([6]; 24 h) of the same compound?
Answer: Its IC50 is 33.6 µM.

Question: What about the “Fold lower affinity toward hERβ compared to 17β-estradiol (E2)” value [7] of the same compound?
Answer: Its value is 2500 fold.

Question: What about the “Fold lower affinity toward hERα compared to 17β-estradiol (E2)” value [8] of the same compound?
Answer: The value was 10,000 fold.

Question: Which EC50 [2] does the source give for C[C@H]1CCC[C@@H](O)CCC/C=C/c2cc(O)cc(O)c2C(=O)O1 [β-ZEL, β-zearalenol] here?
Answer: Its EC50 is 2.4 µM.

Question: What about the “CI Value (combination index)” value ([2]; BLYES, higher concentration (µM): α-ZEL 1.25 × 10^−2, β-ZEL 2.43, ZAN 4.99 × 10^−2, α-ZAL 2.48 × 10^−2, β-ZAL 2.48 × 10^−1, GEN 1.48) of the same compound?
Answer: Its value is 0.95.

Question: What about the “Combined Estrogenic Effect” value [2, 13] of the same compound?
Answer: The value was “Additive effect (0.8 < CI < 1.2: additive effect)”.

Question: What about the “Combined Estrogenic Effect (grade symbol)” value [2, 13] of the same compound?
Answer: Its value is “± (0.80 < CI < 1.20: ±)”.

Question: What about the “CI Value (combination index)” value ([2]; BLYES, lower concentration (µM): α-ZEL 6.24 × 10^−3, β-ZEL 1.22, ZAN 2.50 × 10^−2, α-ZAL 1.24 × 10^−2, β-ZAL 1.24 × 10^−1, GEN 7.4 × 10^−1) of the same compound?
Answer: The value was 0.77.

Question: And the “Combined Estrogenic Effect” value [2, 14]?
Answer: The value was “Synergism (CI < 0.8: synergism)”.

Question: And the “Combined Estrogenic Effect (grade symbol)” value [2, 14]?
Answer: Its value is “+ (0.60 < CI < 0.80: +)”.

Question: What about the “Combined estrogenic effect in Figure 5B” value ([2]; BLYES, higher estrogenic concentration of the compound (as E20)) of the same compound?
Answer: The value was “additive effects”.

Question: And the “Combined estrogenic effect in Figure 5B” value ([2]; BLYES, lower estrogenic concentration of the compound (as E19))?
Answer: The value was “synergism”.

Question: What about the “Concentration at (and above) which statistically significant (p < 0.01) estrogenic effect was observed” value ([2]; BLYES, single compound) of the same compound?
Answer: The value was 0.31 µM.

Question: And the cytotoxicity at 10 µM [5]?
Answer: The cytotoxicity at 10 µM was 19.7%.

Question: And the cytotoxicity at 30 µM [5]?
Answer: The cytotoxicity at 30 µM was 33.1%.

Question: And the “Combined cytotoxic effect in Figure 3B” value [6, 9]?
Answer: The value was “Syn”.

Question: And the “Combined Cytotoxic Effect” value [6, 10]?
Answer: Its value is “Synergism (CI < 0.8: synergism)”.

Question: What about the “Combined Cytotoxic Effect (grade symbol)” value [6, 10] of the same compound?
Answer: Its value is “+ (0.60 < CI < 0.80: +)”.

Question: And the “CI Value (combination index)” value [6, 10]?
Answer: Its value is 0.64.

Question: And the “Combined cytotoxic effect in Figure 3B” value [6, 11]?
Answer: Its value is “Add”.

Question: What about the “Combined Cytotoxic Effect” value [6, 12] of the same compound?
Answer: The value was “Additive effect (0.8 < CI < 1.2: additive effect)”.

Question: What about the “Combined Cytotoxic Effect (grade symbol)” value [6, 12] of the same compound?
Answer: Its value is “± (0.80 < CI < 1.20: ±)”.

Question: What about the “CI Value (combination index)” value [6, 12] of the same compound?
Answer: The value was 1.07.

Question: What about the “Effect of the non-toxic (subtoxic) concentration of the compound on ATP levels of ZEN-exposed cells” value ([6]; 24 h, co-exposure with toxic concentration of ZEN (20 μM), compared to ZEN-exposed cells, Figure 3A) of the same compound?
Answer: The value was “statistically significant (p < 0.01) decreases in ATP levels”.

Question: And the “Concentration at (and above) which statistically significant (p < 0.01) decrease in cell viability was noticed” value [6]?
Answer: The value was 10 µM.

Question: What about the IC50 ([6]; 24 h) of the same compound?
Answer: The IC50 was 39.4 µM.
